The data set can be described thus: Drug loading capacity of sample hydrogel. The data set is classed as physicochemical. The following applies: poly(BAC2-AEPZ1)-PEG hydrogel. How it is done:
Aqueous solutions of 5 wt % poly(BAC2-AEPZ1)-PEG was prepared and left to equilibrate overnight at room temperature. Appropriate amounts of doxorubicin (Dox) were loaded to make the concentration of Dox in the polymer solution 5 mg mL^−1. Subsequently, small amount of 5M sodium hydroxide (NaOH) was added in and was being vortexed for a few minutes to adjust pH to more than 12, and the solutions turn blue. Then, the solution was left undisturbed during hydrogel formation for predetermined time. After predetermined time, a slight in excessive of 5M HCl was added to neutralize the hydrogel to keep the hydrogel stable, and the hydrogel turned red. […]
The results were presented in terms of cumulative release as a function of time: Cumulative amount release (%)=(Mt/M∞) where Mt is the amount of Dox released from the hydrogel at time t and M∞ is the estimate amount of Dox loaded in the hydrogel and was calculated from the weight difference of the initial Dox solution concentration and the remaining Dox solution concentration (combining rinsing water and remaining solution expelled from the hydrogel) after loading.
1 mL of Pac/methanol was extracted from saturated stock solution (50 mg/mL) and added to a vial. […] The column effluent was detected UV spectrophotometrically at wavelength of 227 nm. […]

For `COc1cccc2c1C(=O)c1c(O)c3c(c(O)c1C2=O)C[C@@](O)(C(=O)CO)C[C@@H]3O[C@H]1C[C@H](N)[C@H](O)[C@H](C)O1` [Dox, doxorubicin], the “loading capacity of drug in the sample hydrogel” value is reported as 5-10%.
The result for `CC(=O)O[C@H]1C(=O)[C@@]2(C)[C@H]([C@H](OC(=O)c3ccccc3)[C@]3(O)C[C@H](OC(=O)[C@H](O)[C@@H](NC(=O)c4ccccc4)c4ccccc4)C(C)=C1C3(C)C)[C@]1(OC(C)=O)CO[C@@H]1C[C@@H]2O` [Pac, Paclitaxel] reads 30-50%.

The values are drawn from patent publication US8796234B2, “Crosslinking branched molecule through thiol-disulfide exchange to form hydrogel” (Agency for Science, Technology and Research, priority 2009, dated 2014).
